Structure (SMILES): CCCN[C@@H]1CCc2nc(N)sc2C1.Cl.Cl [Form B, (R)-(+)-2-amino-4,5,6,7-tetrahydro-6-(n-propylamino)benzothiazole dihydrochloride]
- polymorphic form conversion under exposure to humidity and/or moisture: converts to Form A

— patent US10208003B2, “Synthesis of amine substituted 4,5,6,7-tetrahydrobenzothiazole compounds” (KNOPP BIOSCIENCES LLC, priority 2011, dated 2019)
